The record followed here is patent US20240174639A1, “PYRIDINE DERIVATIVES USEFUL AS HCN2 MODULATORS” (King's College London, priority 2021, published 2024).

What is called IC50 is the point on the concentration scale where inhibition reaches its midpoint. The low end stands for greater potency in that assay, the high end for weaker potency in that assay.

Each structure is given as a SMILES string. Structures can show the parent of a compound that is named as a salt.

In one experiment the target is T1, HCN4 (Homo sapiens, UniProt Q9Y3Q4).
T1 sequence (Q9Y3Q4 1-1203): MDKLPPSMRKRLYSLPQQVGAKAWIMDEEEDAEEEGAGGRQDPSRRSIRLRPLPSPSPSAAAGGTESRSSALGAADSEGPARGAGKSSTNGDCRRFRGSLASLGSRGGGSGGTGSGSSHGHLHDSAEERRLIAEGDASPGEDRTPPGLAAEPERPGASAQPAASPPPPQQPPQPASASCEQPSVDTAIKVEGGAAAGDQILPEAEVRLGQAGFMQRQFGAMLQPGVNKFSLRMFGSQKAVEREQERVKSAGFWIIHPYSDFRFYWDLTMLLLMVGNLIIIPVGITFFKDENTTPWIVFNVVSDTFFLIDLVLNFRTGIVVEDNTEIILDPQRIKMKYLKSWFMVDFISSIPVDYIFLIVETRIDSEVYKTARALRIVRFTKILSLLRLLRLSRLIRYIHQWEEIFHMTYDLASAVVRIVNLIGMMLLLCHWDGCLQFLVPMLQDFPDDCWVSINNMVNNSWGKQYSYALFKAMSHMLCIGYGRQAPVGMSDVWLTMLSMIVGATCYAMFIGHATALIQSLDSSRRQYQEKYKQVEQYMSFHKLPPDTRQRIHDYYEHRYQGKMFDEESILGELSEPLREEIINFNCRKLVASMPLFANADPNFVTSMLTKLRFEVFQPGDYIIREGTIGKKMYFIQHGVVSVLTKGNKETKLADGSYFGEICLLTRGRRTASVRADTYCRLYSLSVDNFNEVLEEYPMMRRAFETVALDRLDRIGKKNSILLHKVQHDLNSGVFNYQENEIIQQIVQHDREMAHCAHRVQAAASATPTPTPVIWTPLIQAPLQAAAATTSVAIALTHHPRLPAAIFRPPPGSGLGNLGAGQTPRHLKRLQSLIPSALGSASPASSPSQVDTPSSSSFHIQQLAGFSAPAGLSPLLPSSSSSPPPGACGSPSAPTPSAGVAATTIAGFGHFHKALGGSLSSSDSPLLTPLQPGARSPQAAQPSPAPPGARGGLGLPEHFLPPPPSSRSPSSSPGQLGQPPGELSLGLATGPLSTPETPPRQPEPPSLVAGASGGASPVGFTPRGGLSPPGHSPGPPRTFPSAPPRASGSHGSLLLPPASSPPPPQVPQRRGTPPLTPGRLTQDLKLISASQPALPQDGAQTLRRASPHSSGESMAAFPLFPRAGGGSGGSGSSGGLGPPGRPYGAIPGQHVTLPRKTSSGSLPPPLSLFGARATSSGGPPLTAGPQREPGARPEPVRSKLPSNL
In words: HCN4 assay using the Sophion Qube (Example 50B). Format: cell-based. Particulars: Sophion Qube protocol (SQ). As for the experimental part:
Solutions for recording HCN currents were: [table] For HCN4, the cells were held at −30 mV and then stepped to −130 mV for 4 seconds before stepping back to −30 mV, this represents 1 experimental sweep. This voltage protocol was applied every 20 seconds for the duration of the experiment. Both the vehicle (0.3% DMSO) and full block (3 mM CsCl) addition periods were applied for 10 experimental sweeps each. The compound addition period was applied for 30 sweeps. The currents evoked by the step to −110 mV (HCN1 and HCN2) or −130 mV (HCN4) were measured for the analysis of the percentage inhibition by test compounds. The current amplitudes were measured by subtracting metric A from metric B (see FIG. 2) with inhibition calculated by normalising to the vehicle addition (0.3% DMSO) and full inhibition by 3 mM CsCl in the same well. […] In total, compound was applied to the well for 600 seconds.

Another experiment concerns the target T2, HCN2 (Homo sapiens, UniProt Q9UL51).
T2 sequence (Q9UL51 1-889): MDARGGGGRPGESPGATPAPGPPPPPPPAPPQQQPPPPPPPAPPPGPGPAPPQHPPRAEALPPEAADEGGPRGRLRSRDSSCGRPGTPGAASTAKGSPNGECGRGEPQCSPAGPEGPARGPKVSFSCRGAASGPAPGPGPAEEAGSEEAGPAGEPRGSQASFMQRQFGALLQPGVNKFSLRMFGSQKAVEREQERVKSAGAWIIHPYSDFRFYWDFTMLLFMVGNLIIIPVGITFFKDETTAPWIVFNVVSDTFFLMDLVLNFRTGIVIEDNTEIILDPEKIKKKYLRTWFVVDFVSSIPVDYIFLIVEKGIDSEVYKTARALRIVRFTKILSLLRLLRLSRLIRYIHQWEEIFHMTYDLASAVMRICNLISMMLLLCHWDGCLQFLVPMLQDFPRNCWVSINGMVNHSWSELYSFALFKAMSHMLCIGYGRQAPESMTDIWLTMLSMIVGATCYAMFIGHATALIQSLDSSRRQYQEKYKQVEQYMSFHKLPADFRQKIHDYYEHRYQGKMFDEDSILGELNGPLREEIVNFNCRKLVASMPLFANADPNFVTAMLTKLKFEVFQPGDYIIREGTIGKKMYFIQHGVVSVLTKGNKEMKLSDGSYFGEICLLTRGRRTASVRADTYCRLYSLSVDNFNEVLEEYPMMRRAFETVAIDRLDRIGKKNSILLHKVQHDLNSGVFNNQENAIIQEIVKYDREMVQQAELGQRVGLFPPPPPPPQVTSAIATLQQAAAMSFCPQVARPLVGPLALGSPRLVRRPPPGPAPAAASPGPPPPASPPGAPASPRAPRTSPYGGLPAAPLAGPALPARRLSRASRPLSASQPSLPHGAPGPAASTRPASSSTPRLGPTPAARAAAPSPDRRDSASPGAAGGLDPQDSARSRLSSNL
The experiment is described as follows: HCN2 assay using the Sophion Qube (Example 50B). It is filed as cell-based. Particulars: Sophion Qube protocol (SQ). As for the experimental part: Solutions for recording HCN currents were:
For HCN1 and HCN2 the cells were held at −30 mV and then stepped to −110 mV for 2 seconds before stepping back to −30 mV, this represents 1 experimental sweep. This voltage protocol was applied every 20 seconds for the duration of the experiment. Both the vehicle (0.3% DMSO) and full block (3 mM CsCl) addition periods were applied for 10 experimental sweeps each. The compound addition period was applied for 30 sweeps.
The currents evoked by the step to −110 mV (HCN1 and HCN2) or −130 mV (HCN4) were measured for the analysis of the percentage inhibition by test compounds. The current amplitudes were measured by subtracting metric A from metric B (see FIG. 2) with inhibition calculated by normalising to the vehicle addition (0.3% DMSO) and full inhibition by 3 mM CsCl in the same well.
In total, compound was applied to the well for 600 seconds.

On to `Cc1cccnc1C[C@H](N)c1ncccc1-n1ncc2cc(Br)ccc21` [Example 30, (S)-1-[3-(5-Bromo-1H-indazole-1-yl)pyridine-2-yl]-2-(3-methylpyr-idine-2-yl)ethan-1-amine hydrochloride], for which the half-maximal inhibitory concentration (IC50) on HCN4 was 22500 nM; at HCN2, 900 nM.

For the molecule `Cc1ccc(C#N)nc1C[C@H](N)c1ncccc1-n1ncc2cc(Cl)ccc21` [Example 35, (S)-6-{2-Amino-2-[3-(5-chloro-1H-indazol-1-yl)pyridine-2-yl]-ethyl}-5-methylpyr-idine-2-carbonitrile], the IC50 on HCN4 is 4300 nM; against HCN2 it was 460 nM.

In the case of `Cc1ccc(C#N)nc1C[C@H](N)c1ncccc1-n1ncc2cc(Br)ccc21` [Example 36, hydrochloride], the values for the IC50 against HCN4 and on HCN2 were 4700 nM and 770 nM, respectively.

On to `N#Cc1ccc(F)c(C[C@H](N)c2ncccc2-n2ncc3cc(F)ccc32)n1` [Example 38, (S)-6-{2-Amino-2-[3-(5-fluoro-1H-indazol-1-yl)pyridine-2-yl]ethyl}-5-fluoropyridine-2-carbonitrile], for which the IC50 at HCN4 is greater than 30000 nM; at HCN2, 790 nM.

With `Cc1ccc2c(cnn2-c2cccnc2[C@@H](N)Cc2nc(C#N)ccc2F)c1` [Example 39, (S)-6-{2-Amino-2-[3-(5-methyl-1H-indazol-1-yl)pyridine-2-yl]-ethyl}-5-fluoropyr-idine-2-carbonitrile hydrochloride], the results for the IC50 at HCN4 and on HCN2 were 3700 nM and 310 nM, respectively.

`CS(=O)(=O)c1ccc(F)c(C[C@H](N)c2ncccc2-n2ncc3cc(Cl)ccc32)n1` [Example 41, (S)-1-[3-(5-Chloro-1H-indazole-1-yl)-pyridine-2-yl]-2-(3-fluoro-6-methylsulfon-ylpyridine-2-yl)ethan-1-amine hydrochloride]: the results for the half-inhibitory concentration (IC50) on HCN4 and on HCN2 were greater than 30000 nM and 3900 nM, respectively.

In the case of `Cc1ccc(C#N)nc1C[C@H](N)c1cnccc1-n1ncc2cc(Cl)ccc21` [Example 42, (S)-6-{2-Amino-2-[4-(5-chloro-1H-indazol-1-yl)pyridine-3-yl]-ethyl}-5-methylpyr-idine-2-carbonitrile hydrochloride], the IC50 at HCN2 was determined as 4900 nM.

Turning to `N#Cc1ccc(F)c(C[C@H](N)c2ncccc2-n2ncc3cc(Br)ccc32)n1` [Example 43, (S)-6-{2-Amino-2-[3-(5-bromo-1H-indazol-1-yl)pyridine-2-yl-ethyl}-5-fluoropyr-idine-2-carbonitrile hydrochloride], half-maximal inhibition on HCN2 (IC50) was put at 780 nM.

Turning to `Cc1ccc(F)c(C[C@H](N)c2ncccc2-n2ncc3cc(Cl)ccc32)n1` [Example 44, (S)-1-[3-(5-Chloro-1H-indazole-1-yl)pyridine-2-yl]-2-(3-fluoro-6-methylpyridine-2-yl)-ethan-1-amine hydro-chloride], on HCN2, the IC50 stood at 1500 nM.

For the molecule `N#Cc1ccc(F)c(C[C@H](N)c2ncccc2-n2ncc3cc(Cl)ccc32)n1` [Example 45, (S)-6-{2-Amino-2-[3-(5-chloro-1H-indazol-1-yl)pyridine-2-yl-ethyl}-5-fluoropyr-idine-2-carbonitrile hydrochloride], the concentration for half-maximal inhibition (IC50) was determined as 3400 nM against HCN4 and 600 nM at HCN2.

At HCN2, `N#Cc1nc(C[C@H](N)c2ncccc2-n2ncc3cc(Br)ccc32)ccc1F` [Example 46, (S)-6-{2-Amino-2-[3-(5-bromo-1H-indazol-1-yl)pyridine-2-yl]-ethyl}-3-fluoropyr-idine-2-carbonitrile hydrochloride] showed an IC50 of 1200 nM.

For `Cc1ccc(C#N)nc1C[C@H](N)c1ncccc1-n1ncc2cc(F)ccc21` [Example 47], the IC50 worked out at 10000 nM at HCN4 and 630 nM on HCN2.

Consider `CS(=O)(=O)c1ccc(F)c(C[C@H](N)c2ncccc2-n2ncc3cc(Br)ccc32)n1` [Example 48, (S)-1-[3-(5-Bromo-1H-indazole-1-yl)pyridine-2-yl]-2-(3-fluoro-6-methylsulfonylpyr-idine-2-yl)ethan-1-amine hydrochloride], for which the half-maximal inhibitory concentration (IC50) against HCN4 was 11100 nM; against HCN2 it was 2100 nM.
